Measurements published in ChEMBL document CHEMBL4359841, “Late-Stage Functionalization of Platensimycin Leading to Multiple Analogues with Improved Antibacterial Activity in Vitro and in Vivo” (2019).
In brackets after ≈: the same amount, converted by molar mass. Activity calls are given as the source filed them. No cut-off for these calls is given here.

What was measured:
Staphylococcus aureus [1] = test: Inhibition of FabB/FabF in methicillin-resistant Staphylococcus aureus 3104 clinical isolate assessed as antibacterial activity after 16 hrs by agar dilution method
Staphylococcus aureus [2] = test: Inhibition of FabB/FabF in Staphylococcus aureus ATCC 29213 assessed as antibacterial activity after 16 hrs by agar dilution method
Staphylococcus aureus [3] = test: Inhibition of FabB/FabF in methicillin-resistant Staphylococcus aureus 3181 clinical isolate assessed as antibacterial activity after 16 hrs by agar dilution method
Staphylococcus aureus [4] = test: Inhibition of FabB/FabF in methicillin-resistant Staphylococcus aureus 3100 clinical isolate assessed as antibacterial activity after 16 hrs by agar dilution method
Staphylococcus aureus [5] = test: Inhibition of FabB/FabF in methicillin-resistant Staphylococcus aureus 3112 clinical isolate assessed as antibacterial activity after 16 hrs by agar dilution method
Staphylococcus aureus [6] = test: Inhibition of FabB/FabF in methicillin-resistant Staphylococcus aureus 3163 clinical isolate assessed as antibacterial activity after 16 hrs by agar dilution method
Staphylococcus aureus [7] = test: Inhibition of FabB/FabF in methicillin-resistant Staphylococcus aureus 3111 clinical isolate assessed as antibacterial activity after 16 hrs by agar dilution method
Staphylococcus aureus [8] = test: Inhibition of FabB/FabF in methicillin-sensitive Staphylococcus aureus 2956 clinical isolate assessed as antibacterial activity after 16 hrs by agar dilution method
Staphylococcus aureus [9] = test: Inhibition of FabB/FabF in methicillin-resistant Staphylococcus aureus 3056 clinical isolate assessed as antibacterial activity after 16 hrs by agar dilution method
Staphylococcus aureus [10] = test: Inhibition of FabB/FabF in methicillin-resistant Staphylococcus aureus 2962 clinical isolate assessed as antibacterial activity after 16 hrs by agar dilution method
Staphylococcus aureus [11] = test: Inhibition of FabB/FabF in methicillin-resistant Staphylococcus aureus 3196 clinical isolate assessed as antibacterial activity after 16 hrs by agar dilution method
Staphylococcus aureus [12] = test: Inhibition of FabB/FabF in methicillin-resistant Staphylococcus aureus 2980 clinical isolate assessed as antibacterial activity after 16 hrs by agar dilution method
Staphylococcus aureus [13] = test: Inhibition of FabB/FabF in methicillin-resistant Staphylococcus aureus 3090 clinical isolate assessed as antibacterial activity after 16 hrs by agar dilution method
Staphylococcus aureus [14] = test: Inhibition of FabB/FabF in methicillin-resistant Staphylococcus aureus 3108 clinical isolate assessed as antibacterial activity after 16 hrs by agar dilution method
Staphylococcus aureus [15] = test: Inhibition of FabB/FabF in methicillin-resistant Staphylococcus aureus 2976 clinical isolate assessed as antibacterial activity after 16 hrs by agar dilution method
Staphylococcus aureus [16] = test: Inhibition of FabB/FabF in methicillin-resistant Staphylococcus aureus 3082 clinical isolate assessed as antibacterial activity after 16 hrs by agar dilution method
Staphylococcus aureus [17] = test: Inhibition of FabB/FabF in methicillin-resistant Staphylococcus aureus 3158 clinical isolate assessed as antibacterial activity after 16 hrs by agar dilution method
Staphylococcus aureus [18] = test: Inhibition of FabB/FabF in methicillin-resistant Staphylococcus aureus assessed as antibacterial activity after 16 hrs by agar dilution method
Staphylococcus aureus [19] = test: Inhibition of FabB/FabF in methicillin-resistant Staphylococcus aureus 3097 clinical isolate assessed as antibacterial activity after 16 hrs by agar dilution method
Staphylococcus aureus [20] = test: Inhibition of FabB/FabF in methicillin-resistant Staphylococcus aureus 3182 clinical isolate assessed as antibacterial activity after 16 hrs by agar dilution method
Staphylococcus aureus [21] = test: Inhibition of FabB/FabF in methicillin-resistant Staphylococcus aureus 3079 clinical isolate assessed as antibacterial activity after 16 hrs by agar dilution method
Staphylococcus aureus [22] = test: Inhibition of FabB/FabF in methicillin-resistant Staphylococcus aureus 2984 clinical isolate assessed as antibacterial activity after 16 hrs by agar dilution method
Staphylococcus aureus [23] = test: Inhibition of FabB/FabF in methicillin-resistant Staphylococcus aureus 3114 clinical isolate assessed as antibacterial activity after 16 hrs by agar dilution method
Staphylococcus aureus [24] = test: Inhibition of FabB/FabF in methicillin-resistant Staphylococcus aureus 3095 clinical isolate assessed as antibacterial activity after 16 hrs by agar dilution method
Staphylococcus aureus [25] = test: Inhibition of FabB/FabF in methicillin-resistant Staphylococcus aureus 3116 clinical isolate assessed as antibacterial activity after 16 hrs by agar dilution method
Staphylococcus aureus [26] = test: Inhibition of FabB/FabF in methicillin-resistant Staphylococcus aureus 3094 clinical isolate assessed as antibacterial activity after 16 hrs by agar dilution method
Staphylococcus aureus [27] = test: Inhibition of FabB/FabF in methicillin-resistant Staphylococcus aureus 3110 clinical isolate assessed as antibacterial activity after 16 hrs by agar dilution method
Staphylococcus aureus [28] = test: Inhibition of FabB/FabF in methicillin-resistant Staphylococcus aureus 2959 clinical isolate assessed as antibacterial activity after 16 hrs by agar dilution method
Staphylococcus aureus [29] = test: Antibacterial activity against methicillin-resistant Staphylococcus aureus infected in C57BL/6J mouse model of peritonitis assessed as mouse survival at 10 mg/kg, ip dosed at 1 hr and 5 hrs post infection and measured for 7 days relative to control; type: functional
Staphylococcus aureus [30] = test: Inhibition of FabB/FabF in methicillin-resistant Staphylococcus aureus 3150 clinical isolate assessed as antibacterial activity after 16 hrs by agar dilution method
Staphylococcus aureus [31] = test: Inhibition of FabB/FabF in methicillin-sensitive Staphylococcus aureus 2954 clinical isolate assessed as antibacterial activity after 16 hrs by agar dilution method
Staphylococcus aureus [32] = test: Inhibition of FabB/FabF in methicillin-resistant Staphylococcus aureus 2953 clinical isolate assessed as antibacterial activity after 16 hrs by agar dilution method
Staphylococcus aureus [33] = test: Inhibition of FabB/FabF in methicillin-resistant Staphylococcus aureus 2957 clinical isolate assessed as antibacterial activity after 16 hrs by agar dilution method
Staphylococcus aureus [34] = test: Inhibition of FabB/FabF in methicillin-resistant Staphylococcus aureus 2985 clinical isolate assessed as antibacterial activity after 16 hrs by agar dilution method
Staphylococcus aureus [35] = test: Inhibition of FabB/FabF in methicillin-resistant Staphylococcus aureus 3046 clinical isolate assessed as antibacterial activity after 16 hrs by agar dilution method
Staphylococcus aureus [36] = test: Inhibition of FabB/FabF in methicillin-resistant Staphylococcus aureus 2951 clinical isolate assessed as antibacterial activity after 16 hrs by agar dilution method
Staphylococcus aureus [37] = test: Inhibition of FabB/FabF in methicillin-resistant Staphylococcus aureus 3093 clinical isolate assessed as antibacterial activity after 16 hrs by agar dilution method
Staphylococcus aureus [38] = test: Inhibition of FabB/FabF in methicillin-resistant Staphylococcus aureus 3103 clinical isolate assessed as antibacterial activity after 16 hrs by agar dilution method
Staphylococcus aureus [39] = test: Inhibition of FabB/FabF in methicillin-resistant Staphylococcus aureus 3074 clinical isolate assessed as antibacterial activity after 16 hrs by agar dilution method
Staphylococcus aureus [40] = test: Inhibition of FabB/FabF in methicillin-sensitive Staphylococcus aureus 2952 clinical isolate assessed as antibacterial activity after 16 hrs by agar dilution method
Staphylococcus aureus [41] = test: Inhibition of FabB/FabF in methicillin-resistant Staphylococcus aureus 3156 clinical isolate assessed as antibacterial activity after 16 hrs by agar dilution method

For `C[C@]12C[C@@]34C=C(SC5CCCCC5)C(=O)[C@@](C)(CCC(=O)Nc5c(O)ccc(C(=O)O)c5O)[C@@H]3[C@H](C[C@@H]1C4)O2`, the inhibition (Staphylococcus aureus [1]) was “Active”, the MIC (Staphylococcus aureus [2]) was 0.5 µg/mL (≈ 0.9 µM) and the inhibition (Staphylococcus aureus [3]) was “Active”. For the same compound, the inhibition (Staphylococcus aureus [4]) was “Active”, the inhibition (Staphylococcus aureus [5]) was “Active” and the inhibition (Staphylococcus aureus [6]) was “Active”. The inhibition (Staphylococcus aureus [7]) was “Active”, the inhibition (Staphylococcus aureus [8]) was “Active” and the inhibition (Staphylococcus aureus [9]) was “Active”. The inhibition (Staphylococcus aureus [10]) was “Active”, the inhibition (Staphylococcus aureus [11]) was “Active” and the inhibition (Staphylococcus aureus [12]) was “Active”. For the same compound, the inhibition (Staphylococcus aureus [13]) was “Active”, the inhibition (Staphylococcus aureus [14]) was “Active” and the inhibition (Staphylococcus aureus [15]) was “Active”. The inhibition (Staphylococcus aureus [16]) was “Active”, the inhibition (Staphylococcus aureus [17]) was “Active” and the MIC (Staphylococcus aureus [18]) was 0.25 µg/mL (≈ 0.45 µM). The inhibition (Staphylococcus aureus [19]) was “Active”, the inhibition (Staphylococcus aureus [20]) was “Active” and the inhibition (Staphylococcus aureus [21]) was “Active”. The inhibition (Staphylococcus aureus [22]) was “Active”, the inhibition (Staphylococcus aureus [23]) was “Active” and the inhibition (Staphylococcus aureus [24]) was “Active”. The inhibition (Staphylococcus aureus [25]) was “Active”, the inhibition (Staphylococcus aureus [26]) was “Active” and the inhibition (Staphylococcus aureus [27]) was “Active”. The inhibition (Staphylococcus aureus [28]) was “Active”, the survival at 10 mg/kg (Staphylococcus aureus [29]) was greater than 60% and the inhibition (Staphylococcus aureus [30]) was “Active”. The inhibition (Staphylococcus aureus [31]) was “Active”, the inhibition (Staphylococcus aureus [32]) was “Active” and the inhibition (Staphylococcus aureus [33]) was “Active”. The inhibition (Staphylococcus aureus [34]) was “Active”, the inhibition (Staphylococcus aureus [35]) was “Active” and the inhibition (Staphylococcus aureus [36]) was “Active”. For the same compound, the inhibition (Staphylococcus aureus [37]) was “Active”, the inhibition (Staphylococcus aureus [38]) was “Active” and the inhibition (Staphylococcus aureus [39]) was “Active”. For the same compound, the inhibition (Staphylococcus aureus [40]) was “Active” and the inhibition (Staphylococcus aureus [41]) was “Active”.
`C[C@]12C[C@@]34C=CC(=O)[C@@](C)(CCC(=O)Nc5c(O)ccc(C(=O)O)c5O)[C@@H]3[C@H](C[C@@H]1C4)O2` gave an MIC (Staphylococcus aureus [1]) of 1 µg/mL (≈ 2.27 µM), an MIC (Staphylococcus aureus [2]) of 1 µg/mL (≈ 2.27 µM) and an MIC (Staphylococcus aureus [3]) of 1 µg/mL (≈ 2.27 µM). It also gave an MIC (Staphylococcus aureus [4]) of 1 µg/mL (≈ 2.27 µM), an MIC (Staphylococcus aureus [5]) of 1 µg/mL (≈ 2.27 µM) and an MIC (Staphylococcus aureus [6]) of 1 µg/mL (≈ 2.27 µM). It also gave an MIC (Staphylococcus aureus [7]) of 1 µg/mL (≈ 2.27 µM), an MIC (Staphylococcus aureus [8]) of 1 µg/mL (≈ 2.27 µM) and an MIC (Staphylococcus aureus [9]) of 1 µg/mL (≈ 2.27 µM). It also gave an MIC (Staphylococcus aureus [10]) of 1 µg/mL (≈ 2.27 µM), an MIC (Staphylococcus aureus [11]) of 1 µg/mL (≈ 2.27 µM) and an MIC (Staphylococcus aureus [12]) of 1 µg/mL (≈ 2.27 µM). It also gave an MIC (Staphylococcus aureus [13]) of 1 µg/mL (≈ 2.27 µM), an MIC (Staphylococcus aureus [14]) of 1 µg/mL (≈ 2.27 µM) and an MIC (Staphylococcus aureus [15]) of 1 µg/mL (≈ 2.27 µM). It also gave an MIC (Staphylococcus aureus [16]) of 1 µg/mL (≈ 2.27 µM), an MIC (Staphylococcus aureus [17]) of 1 µg/mL (≈ 2.27 µM) and an MIC (Staphylococcus aureus [18]) of 0.5 µg/mL (≈ 1.13 µM). It also gave an MIC (Staphylococcus aureus [19]) of 1 µg/mL (≈ 2.27 µM), an MIC (Staphylococcus aureus [20]) of 1 µg/mL (≈ 2.27 µM) and an MIC (Staphylococcus aureus [21]) of 1 µg/mL (≈ 2.27 µM). The MIC (Staphylococcus aureus [22]) was 1 µg/mL (≈ 2.27 µM), the MIC (Staphylococcus aureus [23]) was 1 µg/mL (≈ 2.27 µM) and the MIC (Staphylococcus aureus [24]) was 1 µg/mL (≈ 2.27 µM). For the same compound, the MIC (Staphylococcus aureus [25]) was 1 µg/mL (≈ 2.27 µM), the MIC (Staphylococcus aureus [26]) was 1 µg/mL (≈ 2.27 µM) and the MIC (Staphylococcus aureus [27]) was 1 µg/mL (≈ 2.27 µM). For the same compound, the MIC (Staphylococcus aureus [28]) was 1 µg/mL (≈ 2.27 µM), the Survival (Staphylococcus aureus [29]) was “inactive” and the MIC (Staphylococcus aureus [30]) was 1 µg/mL (≈ 2.27 µM). The MIC (Staphylococcus aureus [31]) was 1 µg/mL (≈ 2.27 µM), the MIC (Staphylococcus aureus [32]) was 1 µg/mL (≈ 2.27 µM) and the MIC (Staphylococcus aureus [33]) was 1 µg/mL (≈ 2.27 µM). For the same compound, the MIC (Staphylococcus aureus [34]) was 1 µg/mL (≈ 2.27 µM), the MIC (Staphylococcus aureus [35]) was 1 µg/mL (≈ 2.27 µM) and the MIC (Staphylococcus aureus [36]) was 1 µg/mL (≈ 2.27 µM). It also gave an MIC (Staphylococcus aureus [37]) of 1 µg/mL (≈ 2.27 µM), an MIC (Staphylococcus aureus [38]) of 1 µg/mL (≈ 2.27 µM) and an MIC (Staphylococcus aureus [39]) of 1 µg/mL (≈ 2.27 µM). The MIC (Staphylococcus aureus [40]) was 1 µg/mL (≈ 2.27 µM) and the MIC (Staphylococcus aureus [41]) was 1 µg/mL (≈ 2.27 µM).
